Here are results for 6 compounds from article PMC9571953, “Discovery of New VEGFR-2 Inhibitors: Design, Synthesis, Anti-Proliferative Evaluation, Docking, and MD Simulation Studies” (Molecules, 2022).

One assay has as its system HCT-116. The experiment in a line: In vitro anti-proliferative activity (MTT). The class given is cell-based. The following applies: Homo sapiens, mean ± S.D. of three experiments, read-out: In Vitro Cytotoxicity IC50 HCT-116. As to the method: (§1) The latter cells were selected owing to their VEGFR-2 overabundance.
(§2) Was conducted the experiment by the MTT procedure. In-depth discussions have been held in the Supplementary Data. […]
(§3) ✓ In vitro anti-proliferative activity against HepG-2 and HCT-116
(§4) The cells were cultured in RPMI-1640 medium supplemented with 10% fetal bovine serum (FBS), penicillin (100 unit /mL) and streptomycin sulphate (100µg/mL) at 37 °C in a 5% CO2 incubator.
(§5) Then, cells were dropped in 96-well plates at a density of 3-8 × 10^3 cells/well and incubated for two days in a 5% CO2 incubator at 37 °C. Then, the cells were treated with the synthesized compounds and the cell cultures were continued incubated for 24 h. However, Different concentrations of the compound under test (0.0, 5.0, 12.5, 25.0 and 50 mg/ml) were added to the cell monolayer. Then, (3-[4,5-dimethylthiazol-2-yl]- 2,5-diphenyltetrazolium bromide) MTT solution (20 µl, 5mg/mL) was added to each well and incubated for additional 4 h. The formed purple crystals of MTT-formazan were dissolved in 100 µl DMSO each well; the absorbance of each well was measured at 570 nm using a plate reader (EXL 800, USA). All compounds were tested three times. The relative cell viability in percentage was calculated. The results for IC50 values of the active compounds are […]
(§6) The data represented the mean of three independent experiments in triplicate and were expressed as means ± SD. […]

The test system of the next assay is HepG-2. The experiment in a line: In vitro anti-proliferative activity (MTT). To be noted: Homo sapiens, HepG2, mean ± S.D. of three experiments, read-out: In Vitro Cytotoxicity IC50 HepG-2. The class given is cell-based. How it is done: as §1, §2, §3, §4, §5, §6
Assay [1] has as its system human tumor necrosis factor alpha (TNF-α). The experiment in a line: In vitro immunomodulatory assay, TNF-α. The class given is cell-based. To be noted: HCT-116 cells. How it is done: (§7) The immunomodulatory potentialities of congeners 6 and 7 on HCT-116 cells was also assayed. Two well-defined immunity markers, human tumor necrosis factor alpha (TNF-α), and interleukin 6 (IL6), were measured following the treatment with each compound. In addition, dexamethasone was co-assayed as a reference drug. A considerable reduction in both markers was noticed regarding the two compounds (Table 4).

Assay [2] relates to HCT-116 cells. The experiment in a line: Annexin-V/propidium iodide apoptosis assay. The class given is cell-based. To be noted: HCT-116, 9.3 µM of compound 6, 48 h. As to the method: Both extrinsic and intrinsic apoptosis induced by compound 6 in HCT-116 cells was assayed through Annexin-V/propidium iodide staining assay. Marked induction of both early and late apoptosis was observed upon treating HCT-116 cells with 6. […]
Apoptotic activity of compound 6 was evaluated using Annexin V-FITC/PI apoptosis detection kit.
HCT-116 cells ([…]) were seeded and incubated with compound 6 for 48 h, trypsinized, collected and washed with phosphate-buffered saline (PBS) several times; […] cells were stained with […]
Annexin V fluorescein isothiocyanate (FITC) and counterstained with propidium iodide (PI) for 15 min at 37 °C in the dark using the apoptosis detection kit (BD Biosciences, San Jose, CA) according to the manufacturer's protocol. Then, Annexin V-FITC and PI binding were analyzed by a FACS […]
Crystal structure of VEGFR-2 [PDB ID: 2OH4, resolution: 2.07 Å] was obtained from Protein Data Bank. The docking investigation was accomplished using MOE 2014 software. At first, the crystal structure of VEGFR-2 was prepared by removing water molecules. Only one chain was retained beside the co-crystallized ligand. Then, the selected chain was protonated and subjected to minimization of energy process. Next, the active site of the target protein was defined.
Structures of the synthesized compounds and sorafenib (as reference standard) were drawn using ChemBioDraw Ultra 14.0 and saved as MDL-SD format. Such file was opened using MOE to display the 3D structures which were protonated and subjected to energy minimization. Formerly, validation of the docking process was performed by docking the co-crystallized ligand against the isolated pocket of active site. The produced RMSD value indicated the validity of process. Finally, docking of the tested compounds was done through the dock option inserted in compute window.
For each docked molecule, 30 docked poses were produced using ASE for scoring function and force field for refinement. The results of the docking process were then visualized using Discovery […]
ADMET descriptors (absorption, distribution, metabolism, excretion and toxicity) of the compounds were determined using Discovery studio 4.0. At first, the CHARMM force field was applied then the tested compounds were prepared and minimized according to the preparation of small molecule protocol. Then ADMET descriptors protocol was applied to carry out these studies.
The toxicity parameters of the synthesized compounds were calculated using Discovery studio 4.0.
Sorafenib was used as a reference drug. At first, the CHARMM force field was applied then the […]

For the next assay, the system named is interleukin 6 (IL6). The experiment in a line: In vitro immunomodulatory assay, IL6. The format is cell-based. The following applies: HCT-116 cells. How it is done: as §7
The next assay has as its target Human VEGFR-2 (Homo sapiens, UniProt P35968). The experiment in a line: In vitro VEGFR-2 enzyme inhibition assay (ELISA kit).
Assay [3] relates to HCT-116 cells. The experiment in a line: Flow cytometry cell cycle analysis (PI staining). The class given is cell-based. The following applies: HCT-116, 9.3 µM of compound 6, 48 h. As to the method:
It was clear from the obtained results that member 6 arrested cell cycle progression at the phase G2-M, as it caused a significant elevation of the cell levels by 35.84% versus 12.91% accumulation of the control cells.
Were conducted propidium iodide (PI) staining and flow cytometry analysis.. In-depth discussions have been held in the Supplementary Data. […]
and were expressed as means ± SD. […]
HCT-116 cells were grown in six-well plates (each one contains 2 x 10^5 cells per well) containing 10% foetal bovine serum and incubated for 24 h at 37 °C and 5% CO2. The medium was replaced with (DMSO 1% v/v) containing the 9.3 µM of compound 6, then incubated for 48 h, collected and washed with cold phosphate buffered saline (PBS). After fixation of the collected cells with ice-cold […] ethanol (70%), the cells were rinsed with PBS then stained with the DNA fluorochrome PI, kept for 15 min at 37 °C. Then samples were analyzed with a FACS Caliber flow cytometer. […]
In general terms: A flow cytometer gives signals particle by particle.

In a further assay the test system is VEGFR-2. To be noted: Reported nicotinamide VEGFR-2 inhibitor, Figure 2; no reference given; cited from earlier work.

Molecules are shown by their SMILES.

Chain of Human VEGFR-2 (P35968 20-1356): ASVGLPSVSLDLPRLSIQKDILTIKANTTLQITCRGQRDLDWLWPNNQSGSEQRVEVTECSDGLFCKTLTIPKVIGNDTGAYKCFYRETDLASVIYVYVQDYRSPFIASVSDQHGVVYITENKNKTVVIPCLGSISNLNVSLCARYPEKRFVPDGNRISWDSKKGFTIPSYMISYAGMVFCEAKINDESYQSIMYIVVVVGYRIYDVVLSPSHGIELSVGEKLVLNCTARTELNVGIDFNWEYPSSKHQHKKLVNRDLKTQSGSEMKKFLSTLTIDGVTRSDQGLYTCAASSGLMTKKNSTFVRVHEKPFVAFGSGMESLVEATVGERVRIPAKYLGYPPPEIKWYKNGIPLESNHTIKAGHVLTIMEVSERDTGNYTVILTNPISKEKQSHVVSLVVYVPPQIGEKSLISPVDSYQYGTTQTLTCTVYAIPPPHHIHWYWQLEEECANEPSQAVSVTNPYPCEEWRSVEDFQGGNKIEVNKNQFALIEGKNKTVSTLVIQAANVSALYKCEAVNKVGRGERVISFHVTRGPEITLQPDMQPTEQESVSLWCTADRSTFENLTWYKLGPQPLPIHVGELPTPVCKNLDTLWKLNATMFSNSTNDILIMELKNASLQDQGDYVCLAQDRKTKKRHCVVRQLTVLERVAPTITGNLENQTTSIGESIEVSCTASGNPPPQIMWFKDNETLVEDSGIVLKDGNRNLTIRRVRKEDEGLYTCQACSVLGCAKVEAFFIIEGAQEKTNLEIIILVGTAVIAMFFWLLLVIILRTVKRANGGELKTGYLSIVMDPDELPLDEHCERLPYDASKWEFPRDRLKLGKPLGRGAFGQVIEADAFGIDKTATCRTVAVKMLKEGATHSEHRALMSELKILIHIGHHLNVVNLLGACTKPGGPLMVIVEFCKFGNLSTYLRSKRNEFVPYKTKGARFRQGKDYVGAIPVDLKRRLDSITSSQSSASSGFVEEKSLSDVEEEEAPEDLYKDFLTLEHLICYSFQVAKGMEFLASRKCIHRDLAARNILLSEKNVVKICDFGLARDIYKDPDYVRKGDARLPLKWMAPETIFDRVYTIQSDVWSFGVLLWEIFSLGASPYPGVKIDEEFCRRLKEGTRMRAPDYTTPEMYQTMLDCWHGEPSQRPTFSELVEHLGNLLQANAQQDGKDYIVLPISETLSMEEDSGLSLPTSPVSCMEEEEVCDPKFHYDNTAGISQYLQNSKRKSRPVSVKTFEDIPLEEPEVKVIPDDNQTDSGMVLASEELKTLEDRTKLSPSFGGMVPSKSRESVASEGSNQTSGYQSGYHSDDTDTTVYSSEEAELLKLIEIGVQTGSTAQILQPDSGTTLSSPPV
Procedure for Human VEGFR-2: The ability of the four synthesized congeners to inhibit the VEGFR-2 enzyme in HCT-116 cells was also evaluated.
✓ Assessment of VEGFR-2 inhibition

`O=C(NN=Cc1ccc(Cl)cc1)c1ccc(NC(=O)c2cccnc2)cc1` [Compound 6, N-{4-[2-(4-Chlorobenzylidene)hydrazine-1-carbonyl]phenyl}nicotinamide]: the IC50 in the assay with HCT-116 stood at 9.3 ± 0.02 µM. The half-inhibitory concentration (IC50) in the assay with HepG-2 amounted to 7.8 ± 0.025 µM. In assay [1], the “% Inhibition of TNF-α pg/mL” value worked out at 66.42%. Also, in the assay on HCT-116 cells [2], the “Apoptosis Early” value is recorded as 5.78%, the “Apoptosis Late” value turned out to be 9.75%, the “Apoptosis Total” value is recorded as 16.93 and the Necrosis amounted to 1.40%. In addition, the “% Inhibition of IL6 pg/mL” value with interleukin 6 (IL6) is recorded as 57.34%. The compound further gave an IC50 against Human VEGFR-2 of 0.0608 ± 0.00381 µM. Besides, in the assay on HCT-116 cells [3], the “% G0-G1” value was found to be 36.71%, the “% G2-M” value amounted to 35.84%, the “% Pre-G1” value is 16.93% and the “% S” value amounted to 27.45%.

For `O=C(NN=Cc1ccccc1O)c1ccc(NC(=O)c2cccnc2)cc1` [Compound 7, N-{4-[2-(2-Hydroxybenzylidene)hydrazine-1-carbonyl]phenyl}nicotinamide], the half-maximal inhibitory concentration (IC50) came to 15.9 ± 0.041 µM in the assay on HCT-116, 10.2 ± 0.035 µM in the assay with HepG-2 and 0.129 ± 0.00832 µM against Human VEGFR-2. Further, the “% Inhibition of TNF-α pg/mL” value in assay [1] is 60.54%. Further, in the assay on interleukin 6 (IL6), the “% Inhibition of IL6 pg/mL” value came out at 52.75%.

Consider `O=C(NN=Cc1c[nH]c2ccccc12)c1ccc(NC(=O)c2cccnc2)cc1` [Compound 8, N-{4-[2-((1H-Indol-3-yl)methylene)hydrazine-1-carbonyl]phenyl}nicotinamide], for which the IC50 with HCT-116 came out at 20.5 ± 0.052 µM; in the assay with HepG-2, 16.03 ± 0.051 µM; against Human VEGFR-2, 0.23 ± 0.0102 µM.

Turning to `CC(=NNC(N)=O)c1ccc(NC(=O)c2cccnc2)cc1` [Compound 10, N-{4-[1-(2-Carbamoylhydrazineylidene)ethyl]phenyl}nicotinamide], the IC50 amounted to 24.2 ± 0.06 µM in the assay with HCT-116, 17.6 ± 0.048 µM with HepG-2 and 0.0636 ± 0.00331 µM against Human VEGFR-2.

Take `C[C@@H]1C[C@H]2[C@@H]3CCC4=CC(=O)C=C[C@]4(C)[C@@]3(F)[C@@H](O)C[C@]2(C)[C@@]1(O)C(=O)CO` [Dexamethasone, reference compound]: the “% Inhibition of TNF-α pg/mL” value in assay [1] is on record as 82.47%. Moreover, the “% Inhibition of IL6 pg/mL” value in the assay on interleukin 6 (IL6) came to 93.15%.

For `C/C(=N\Nc1ccccc1)c1ccc(NC(=O)c2cccnc2)cc1` [II], the concentration for half-maximal inhibition (IC50) in the assay with VEGFR-2 is 0.0231 µM.

A word on the IC50: it is the concentration that inhibits the measured activity by half.
